Legend:
polycystin-2 channels [1] = target: T1, polycystin-2 channels (Mus musculus, UniProt O35245); test: Inside-out cilia patch of pIMCD cells, calcium opening of polycystin-2 channels; assay type: cell-based; conditions: Pkd2+/+ mice; read-out: EC50, potency of calcium opening polycystin-2 channels
T1 construct: the mouse channel orthologue under endogenous expression in the kidney collecting duct; endogenous in cells; host or cells: primary inner medullary collecting duct (pIMCD) cells of ARL13B-EGFP mice
T1 sequence (O35245 1-966): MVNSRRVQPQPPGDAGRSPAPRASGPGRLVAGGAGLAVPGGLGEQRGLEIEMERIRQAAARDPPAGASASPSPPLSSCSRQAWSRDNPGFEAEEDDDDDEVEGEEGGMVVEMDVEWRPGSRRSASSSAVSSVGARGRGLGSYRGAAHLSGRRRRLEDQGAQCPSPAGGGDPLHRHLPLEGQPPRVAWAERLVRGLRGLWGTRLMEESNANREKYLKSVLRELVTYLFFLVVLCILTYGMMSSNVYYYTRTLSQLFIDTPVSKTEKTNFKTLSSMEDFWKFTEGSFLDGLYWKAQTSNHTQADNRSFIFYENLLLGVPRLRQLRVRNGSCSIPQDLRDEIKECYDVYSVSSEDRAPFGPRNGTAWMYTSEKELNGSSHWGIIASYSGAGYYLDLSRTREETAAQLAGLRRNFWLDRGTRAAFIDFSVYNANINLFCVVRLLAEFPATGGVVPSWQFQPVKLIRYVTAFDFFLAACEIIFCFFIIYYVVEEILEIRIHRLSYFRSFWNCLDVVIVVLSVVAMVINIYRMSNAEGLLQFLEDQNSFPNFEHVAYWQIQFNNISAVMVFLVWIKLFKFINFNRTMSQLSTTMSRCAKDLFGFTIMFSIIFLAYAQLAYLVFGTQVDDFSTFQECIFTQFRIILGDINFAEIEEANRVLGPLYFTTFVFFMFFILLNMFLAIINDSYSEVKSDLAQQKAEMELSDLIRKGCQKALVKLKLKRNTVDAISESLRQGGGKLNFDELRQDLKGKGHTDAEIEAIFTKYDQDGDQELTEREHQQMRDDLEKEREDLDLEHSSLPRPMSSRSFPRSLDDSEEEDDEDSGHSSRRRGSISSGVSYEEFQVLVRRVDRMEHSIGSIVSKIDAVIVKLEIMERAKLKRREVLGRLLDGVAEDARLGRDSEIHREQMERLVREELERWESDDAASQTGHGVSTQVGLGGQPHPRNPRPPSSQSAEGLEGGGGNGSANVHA
Experimental: (§1) Cell culture of primary inner medullary collecting duct cells and immortalized cell lines. Primary inner medullary collecting ducts cells (pIMCD) were isolated from WT or Pkd2^del-Z/del-Z mice co-expressing the ARL13B-EGFP cilia reporter using the previously described method (Liu et al., 2018). Briefly, inner medullae were removed from the kidney and disassociated using a Dulbecco's phosphate buffered solution (DPBS) containing 2 mg/ml collagenase A and 1 mg/ml hyaluronidase. After mechanical disassociation on ice, medullary cells were cultured in Dulbecco's modified essential medium (DMEM) supplemented with 10% fetal bovine serum (FBS) and 100 units/ml penicillin/100 μg/ml streptomycin. Cilia were patched from cells within 6 days after isolation and within one passage. HEK PKD2^Null cell lines were generated using the CRISPR/Cas9 gene editing kit available from Addgene and authenticated using PCR analysis, as previously described (Liu et al., 2018). […]
(§2) Electrophysiology. The electrophysiologist was blinded by a third party in the laboratory, where test groups were assigned a letter to conceal the genetic identity of the cells being evaluated. […] Ciliary ion currents were recorded using borosilicate glass electrodes polished to resistances of 14-23 MΩ using the cilium patch method previously described (Vien et al., 2020). Single channel currents measured in the inside-out configuration were recorded in symmetrical sodium concentrations. […] Calcium was buffered with 5 EGTA (ethylene glycol-bis(o-aminoethyl ether)-N,N,N′,N′-tetraacetic acid), 5 Na4-BAPTA (Glycine, N, N′-[1,2-ethanediylbis(oxy-2,1-phenylene)]bis[N-(carboxymethyl)]-,tetrasodium) and 0.5 EDTA […]; free calcium was calculated using Maxchilator and titration of 1 M CaCl2) solution (Bers et al., 2010); pH was adjusted to 7.3 using NaOH. […] Whole cell currents used to measure CDD were also recorded in symmetrical sodium concentration, placing the internal recording solution in the pipette electrode and the external recording solution in the bath. […]

polycystin-2 channels [2] = test: as above; assay type: cell-based, mouse; conditions: Pkd2+/del-Z mice; read-out: EC50, potency of calcium opening polycystin-2 channels
Experimental: as §1, §2

SMILES: [Ca+2] [Ca^2+, calcium]
- EC50 (polycystin-2 channels [1]): 1.2 ± 0.4 µM
- EC50 (polycystin-2 channels [2]): 1.4 ± 0.4 µM

Reference: patent US20210369677A1, “SMALL MOLECULE ACTIVATORS OF POLYCYSTIN-2 (PKD2) AND USES THEREOF” (Northwestern University, priority 2020, published 2021)
